According to PMC11601441 (bioRxiv, 2024):

Columns and labels:
Type in all cases: cell-based
mouse GPR17 (mGPR17) = mouse GPR17 (mGPR17) (Mus musculus, UniProt Q6NS65); assay: calcium flux in GLUTag cells expressing mGPR17
[1] = target: human GPR17 long isoform V96M (hGPR17L-V96M) (Homo sapiens, UniProt Q13304, V96M); assay: calcium flux in GLUTag cells expressing hGPR17L-V96M
[2] = target: human GPR17 long isoform (hGPR17L) (Homo sapiens, UniProt Q13304)
human GPR17 long isoform (hGPR17L), sequence (Q13304 whole entry, canonical isoform): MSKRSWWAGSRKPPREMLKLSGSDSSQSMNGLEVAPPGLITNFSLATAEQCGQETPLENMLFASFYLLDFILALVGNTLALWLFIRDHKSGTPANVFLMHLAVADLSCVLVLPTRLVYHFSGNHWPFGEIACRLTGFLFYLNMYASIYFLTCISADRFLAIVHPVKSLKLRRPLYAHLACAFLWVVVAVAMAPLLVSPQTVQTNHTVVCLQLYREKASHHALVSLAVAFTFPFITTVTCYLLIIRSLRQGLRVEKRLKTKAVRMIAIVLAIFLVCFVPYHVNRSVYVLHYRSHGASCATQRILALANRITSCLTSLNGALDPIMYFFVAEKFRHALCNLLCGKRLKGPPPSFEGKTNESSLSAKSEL

mouse GPR17 (mGPR17), sequence (Q6NS65 whole entry, canonical isoform): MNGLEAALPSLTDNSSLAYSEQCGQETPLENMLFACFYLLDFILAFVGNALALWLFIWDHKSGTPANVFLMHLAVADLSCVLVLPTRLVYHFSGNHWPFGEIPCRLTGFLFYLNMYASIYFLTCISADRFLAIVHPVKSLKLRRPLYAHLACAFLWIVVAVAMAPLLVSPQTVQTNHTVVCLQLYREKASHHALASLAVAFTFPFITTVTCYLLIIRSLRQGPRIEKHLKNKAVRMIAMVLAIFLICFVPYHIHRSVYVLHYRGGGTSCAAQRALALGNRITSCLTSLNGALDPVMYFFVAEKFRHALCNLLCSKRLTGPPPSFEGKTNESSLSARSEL
human GPR17 long isoform V96M (hGPR17L-V96M), sequence (Q13304 whole entry V96M, canonical isoform): as the sequence (Q13304 whole entry, canonical isoform) above, with V96M counted along it

EC50 (mouse GPR17 (mGPR17)): 680 nM
EC50 [1]: 580 nM
IC50 [2]: 29 nM
SMILES: O=C(O)CCc1c(C(=O)O)[nH]c2cc(Cl)cc(Cl)c12 [MDL29,951]
